The assay deals with cultured human mast cells (CHMC), IgE-induced degranulation. Kind of assay: LD Tryptase assay: CHMC low cell density IgE activation, tryptase release. The class given is cell-based. To be noted: anti-IgE stimulation, 8 pt. The method, then: Inhibition of degranulation is measured at both low and high cell density by quantifying the release of the granule specific factors tryptase, histamine and hexosaminidase. Inhibition of release and/or synthesis of lipid mediators is assessed by measuring the release of leukotriene LTC4 and inhibition of release and/or synthesis of cytokines is monitored by quantifying TNF-α, IL-6 and IL-13. Tryptase and hexosaminidase are quantified using fluorogenic substrates as described in their respective examples. Histamine, TNFα, IL-6, IL-13 and LTC4 are quantified using the following commercial ELISA kits: histamine (Immunotech #2015, Beckman Coulter), TNFα (Biosource #KHC3011), IL-6 (Biosource #KMC0061), IL-13 (Biosource #KHC0132) and LTC4 (Cayman Chemical #520211). The protocols of the various assays are provided below.
CHMC Low Cell Density IgE Activation: Tryptase and LTC4 Assays
To duplicate 96-well U-bottom plates (Costar 3799) add 65 ul of compound dilutions or control samples that have been prepared in MT [137 mM NaCl, 2.7 mM KCl, 1.8 mM CaCl2, 1.0 mM MgCl2, 5.6 mM Glucose, 20 mM Hepes (pH 7.4), 0.1% Bovine Serum Albumin, (Sigma A4503)] containing 2% MeOH and 1% DMSO. Pellet CHMC cells (980 rpm, 10 min) and resuspend in pre-warmed MT. Add 65 ul of cells to each 96-well plate. Depending on the degranulation activity for each particular CHMC donor, load 1000-1500 cells/well. Mix four times followed by a 1 hr incubation at 37° C. During the 1 hr incubation, prepare 6× anti-IgE solution [rabbit anti-human IgE (1 mg/ml, Bethyl Laboratories A80-109A) diluted 1:167 in MT buffer]. Stimulate cells by adding 25 ul of 6× anti-IgE solution to the appropriate plates. Add 25 ul MT to un-stimulated control wells. Mix twice following addition of the anti-IgE. Incubate at 37° C. for 30 minutes. During the 30 minute incubation, dilute the 20 mM tryptase substrate stock solution [(Z-Ala-Lys-Arg-AMC 2TFA; Enzyme Systems Products, #AMC-246)] 1:2000 in tryptase assay buffer [0.1 M Hepes (pH 7.5), 10% w/v Glycerol, 10 uM Heparin (Sigma H-4898) 0.01% NaN3]. Spin plates at 1000 rpm for 10 min to pellet cells. Transfer 25 ul of supernatant to a 96-well black bottom plate and add 100 ul of freshly diluted tryptase substrate solution to each well. Incubate plates at room temperature for 30 min. Read the optical density of the plates at 355 nm/460 nm on a spectrophotometric plate reader.

For orientation: IC50 means the concentration at which inhibition is half-maximal. Low values mean greater potency, high ones weaker potency. In turn, `COc1ccc(CN2C(=O)C(C)Oc3ccc(Nc4nc(Nc5cc(O)c(OC)c(OC)c5)ncc4F)cc32)cc1` (racemic) [Example 9, (R/S)-5-Fluoro-N2-(3-hydroxy-4,5-dimethoxyphenyl)-N4-[2-methyl-3-oxo-4-(4-methoxybenzyl)-benz[1,4]oxazin-6-yl]-2,4-pyrimidinediamine] displayed an IC50 of less than 5000 nM. In the case of `COc1ccc(CN2C(=O)C(C)Sc3ccc(Nc4nc(Nc5cc(O)c(OC)c(OC)c5)ncc4F)cc32)cc1` (racemic) [Example 10, (R/S)-5-Fluoro-N2-(3-hydroxy-4,5-dimethoxyphenyl)-N4-[2-methyl-3-oxo-4-(4-methoxybenzyl)-benzo[1,4]thiazin-6-yl]-2,4-pyrimidinediamine] it was less than 5000 nM; in that of `COc1cc(Nc2ncc(F)c(Nc3ccc4c(c3)NC(=O)CS4)n2)cc(O)c1OC` [Example 1, 5-Fluoro-N2-(3-hydroxy-4,5-dimethoxyphenyl)-N4-[3-oxo-benzo[1,4]thiazin-6-yl]-2,4-pyrimidinediamine], less than 1000 nM. In the case of `COc1cc(Nc2ncc(F)c(Nc3ccc4c(c3)NC(=O)C(C)(C)S4)n2)cc(O)c1OC` [Example 2, N4-[2,2-Dimethyl-3-oxo-benzo[1,4]thiazin-6-yl]-5-fluoro-N2-(3-hydroxy-4,5-dimethoxyphenyl)-2,4-pyrimidinediamine] it was less than 1000 nM; in that of `COc1cc(Nc2ncc(F)c(Nc3ccc4c(c3)NC(=O)C(C)(C)O4)n2)cc(O)c1OC` [Example 3, N4-[2,2-Dimethyl-3-oxo-benz[1,4]oxazin-6-yl]-5-fluoro-N2-(3-hydroxy-4,5-dimethoxyphenyl)-2,4-pyrimidinediamine], less than 1000 nM; in that of `COc1cc(Nc2ncc(F)c(Nc3ccc4c(n3)NC(=O)C(C)(C)O4)n2)cc(O)c1OC` [Example 4, N4-[2,2-Dimethyl-3-oxo-pyrid[1,4]oxazin-6-yl]-5-fluoro-N2-(3-hydroxy-4,5-dimethoxyphenyl)-2,4-pyrimidinediamine], less than 1000 nM. As for `COc1cc(Nc2ncc(F)c(Nc3ccc4c(c3)NC(=O)CO4)n2)cc(O)c1OC` [Example 5, 5-Fluoro-N2-(3-hydroxy-4,5-dimethoxyphenyl)-N4-[3-oxo-benz[1,4]oxazin-6-yl]-2,4-pyrimidinediamine], the figure is less than 1000 nM; as for `COc1cc(Nc2ncc(F)c(Nc3ccc4c(c3)NC(=O)C(F)(F)O4)n2)cc(O)c1OC` [Example 6, N4-[2,2-Difluoro-3-oxo-benz[1,4]oxazin-6-yl]-5-fluoro-N2-(3-hydroxy-4,5-dimethoxyphenyl)-2,4-pyrimidinediamine], less than 1000 nM; as for `COc1cc(Nc2ncc(F)c(Nc3ccc4c(c3)N(Cc3ccccn3)C(=O)CO4)n2)cc(O)c1OC` [Example 7, 5-Fluoro-N2-(3-hydroxy-4,5-dimethoxyphenyl)-N4[3-oxo-4-(2-pyridylmethyl)-benz[1,4]oxazin-6-yl]-2,4-pyrimidinediamine], less than 5000 nM. Compound `COc1cc(Nc2ncc(F)c(Nc3ccc4c(c3)C(=O)NC(=O)C4(C)C)n2)cc(O)c1OC` [Example 8, 5-Fluoro-N2-(3-hydroxy-4,5-dimethoxyphenyl)-N4-(1,3-(2H)-4,4-dimethylisoquinolinedione-7-yl)-2,4-pyrimidinediamine] returned an IC50 of less than 1000 nM. In the case of `COc1cc(Nc2ncc(F)c(Nc3ccc4c(c3)N(C)C(=O)C(C)(C)S4(=O)=O)n2)cc(O)c1OC` [Example 11, 5-Fluoro-N2-(3-hydroxy-4,5-dimethoxyphenyl)-N4-(2,2,4-trimethyl-1,1,3-trioxo-benzo[1,4]thiazin-6-yl)-2,4-pyrimidinediamine] it was less than 1000 nM; in that of `COc1cc(Nc2ncc(F)c(Nc3ccc4c(c3)N(C)C(=O)CS4)n2)cc(O)c1OC` [Example 12, 5-Fluoro-N2-(3-hydroxy-4,5-dimethoxyphenyl)-N4-(4-methyl-3-oxo-benzo[1,4]thiazin-6-yl)-2,4-pyrimidinediamine], less than 1000 nM.

In the case of `COc1cc(Nc2ncc(F)c(Nc3ccc4c(n3)NCC(C)(C)O4)n2)cc(O)c1OC` [Example 13, N4-(3,4-Dihydro-2H-2,2-dimethyl-5-pyrido[1,4]oxazin-6-yl)-N2-[3,4-dimethoxyphenyl-5-hydroxyphenyl]-5-fluoro-2,4-pyrimidinediamine], the IC50 was less than 1000 nM.

Source of the values: patent US8314093B2, “2,4-pyrimidinediamine compounds for treating or preventing autoimmune diseases” (Rigel Pharmaceuticals, Inc., priority 2006, dated 2012).
